According to patent EP0489933A1, “BILE ALCOHOL AND DRUG CONTAINING THE SAME AS ACTIVE INGREDIENT” (TSUMURA CO., LTD., priority 1990, dated 1992):

What was measured:
[1] = system: male SD rats; assay: Thrombus formation in abdominal vena cava; type: in vivo; details: 30 mg/kg, p.o.; dry weight of thrombus
Procedure: Each of male SD rats of 130 to 210 g in body weight was anesthetized with Nembutal® (50 mg/kg, i.p.) and subjected to median incision ventrotomy to release about a 2 cm portion of abdominal vena cava below the renal vein. Blood flow of the thus released vena cava was temporarily stopped for 5 minutes with 8 hemostatic clips. After recirculating blood for 5 minutes by removing the hemostatic clips, […] was ligated at a position just below the renal vein and the median-incised part was sutured. Two hours after the ligature, the thus treated rat was again subjected to ventrotomy to excise abdominal vena cava. The thus excised blood vessel was cut open on a filter paper which had been moistened with physiological saline, in order to take out thrombus. The thrombus thus obtained was washed with physiological saline to remove adhered blood and the like substances and then dried at 80°C for 12 hours or longer to measure its dry weight. In this instance, each drug to be tested was orally administered 90 minutes before the clipping to examine its effect by single administration on the formation of thrombus. Separately from this, each test drug was administered to 6-week-old male SD rat continuously for 7 days, thrombus was prepared in the eighth day in the same manner as described above and dry weight of the thrombus was measured, in order to examine effect of the continuous 7 day administration on the thrombus formation.

[2] = system: platelet rich plasma (PRP); assay: Platelet aggregation in platelet rich plasma after oral administration; type: in vivo, male rat; details: 30 mg/kg, p.o., blood 90 minutes after administration
Procedure: Each drug to be tested was orally administered to each male rat which has been subjected to fasting treatment for 18 to 24 hours. After 90 minutes of the administration, median incision ventrotomy was carried out under ether anesthesia to collect 9 volumes of blood using a syringe filled with 1 volume of 3.8% sodium citrate solution (3.8% sodium citrate solution:blood = 1:9). After thorough mixing, the thus prepared mixture was centrifuged at 800 rpm for 10 minutes at room temperature to collect the resulting supernatant fluid as platelet rich plasma (PRP). The residual portion was centrifuged at 3,000 rpm for 15 minutes at room temperature to collect the resulting supernatant fluid as platelet poor plasma (PPP). The PRP was diluted with the PPP to adjust the number of platelets to 3×10⁵ ± 2×10⁴ cells/µl. A 450 µl portion of the thus diluted PRP was incubated at 37°C for 3 minutes and then mixed with 50 µl of 1×10⁻⁵ M of ADP or 1×10⁻⁵ g/ml of collagen. Thereafter, platelet aggregation test of the mixture was carried out using an aggregometer by measuring transmittance at 940 nm.

[3] = system: red blood cells; assay: Inhibition of thermal hemolysis of red blood cells; type: cell-based, donryu rats; details: 53°C for 20 minutes; for inhibition at 10 µM / inhibition at 50 µM / inhibition at 100 µM / inhibition at 200 µM / inhibition at 500 µM: Rattus norvegicus, Erythrocyte, 20 min, read-out: Hemolysis Inhibition Ratio (%) against Control
Procedure: Blood was collected from donryu rats of 150 to 200 g in body weight and centrifuged at 1,500 rpm for 5 minutes to obtain red blood cells. The red blood cells thus collected were diluted with 0.15 M phosphate buffer (pH 7.4) to prepare a 5% red blood cell suspension. A 3.8 ml portion of the thus prepared suspension was mixed with 0.2 ml solution of each compound of the present invention which has been adjusted to each level of the concentrations as shown in the following table, and the resulting mixture was shaken thoroughly and incubated at 53°C for 20 minutes. Thereafter, the thus incubated mixture was cooled rapidly with tap water and centrifuged at 3,000 rpm for 15 minutes, and absorbance at 540 nm of the resulting supernatant fluid was measured using a spectrophotometer (Hitachi: Type 200-20). Inhibition rate (%) of red blood cell hemolysis at each concentration of the compound was calculated based on the absorbance, with the results shown in Table 8.

[4] = system: erythrocytes; assay: Erythrocyte deformability (filtration through 5 µm filter) after oral administration; type: in vivo, male rats of Wistar line; details: 30 mg/kg, p.o.; blood collected 90 minutes after administration; number of filtered erythrocytes
Procedure: In this experiment, 9-week-old male rats of Wistar line (5 to 6 individuals per one group) were used after rearing them for 1 week with normal feed. After 24 hours of fasting, each test drug was administered orally and, 90 minutes thereafter, blood sample was collected from lower abdominal vena cava of each rat under anesthesia with Nembutal® (1 ml/kg, i.p.). Blood samples obtained in this way were checked for their blood clotting time and erythrocyte deformability.
Measuring procedures are as follows.
Erythrocyte deformability ... The collected blood is extruded from a syringe with a constant flow of He in a holder equipped with a filter (5 µm). Weight of blood and the number of erythrocytes filtered during a fixed time are measured and the deformability is expressed based on the number of filtered erythrocytes. The results of these measurements are shown respectively in Tables 11 and 12.

[5] = system: male rats of SD line; assay: High cholesterol feed: blood viscosity, serum total cholesterol, triglyceride, GOT; type: in vivo; details: 100 mg/kg/day, p.o., 4 days
Procedure: In this experiment, 5-week-old male rats of SD line (5 individuals per one group) were used after rearing them for 1 week using normal feed, and each compound of the present invention (100 mg/kg) was administered orally once a day for 4 days. Simultaneously with the commencement of the administration, the normal feed was replaced by a high cholesterol feed. After completion of the administration, they were subjected to fasting treatment for 24 hours. Thereafter, each rat was subjected to ventrotomy under anesthesia with Nembutal® (Dainabot Co., Ltd.; 50 mg/kg, i.p.) to collect blood from abdominal aorta, and the collected blood sample was checked for its blood viscosity using a viscometer (Biolyzer, Tokyo Keiki Co., Ltd.). At the same time, total cholesterol (Wako Pure Chemical Industries, Ltd.; Cholesterol E-test wako), triglyceride (Wako Pure Chemical Industries, Ltd.; Triglyceride G-test wako) and GOT (Wako Pure Chemical Industries, Ltd.; GOT-UV test-wako) in serum samples were measured.

[6] = system: male mice of ddY line; assay: Survival time under hypoxia (aeration with 96% nitrogen and 4% oxygen); type: in vivo; details: 50 mg/kg, i.p., 60 minutes before aeration with 96% nitrogen and 4% oxygen; time to respiratory arrest
Procedure: In this experiment, 5 to 6-week-old male mice of ddY line (10 individuals per one group) were used after fasting treatment for 24 hours.
Each compound obtained in the present invention was administered intraperitoneally. After 60 minutes of the administration, each mouse was transferred separately into a transparent vessel (capacity, 1,000 ml) equipped with an air exit, and the vessel was aerated with a mixed gas consisting of 96% nitrogen and 4% oxygen at an aeration rate of 5 ℓ/min.
All tested mice died within 180 seconds after the commencement of the gas mixture aeration. Terminal respiration was observed several times prior to the respiratory arrest. Survival time of the control group was roughly in the range of from 96 to 111 seconds.

| SMILES | Antithrombotic Effect: Thrombus weight ±S.E. [1] [mg] | Platelet Aggregation Ratio ±S.E. ([2]; ADP (1×10⁻⁵ M)) [%] | Platelet Aggregation Ratio ±S.E. ([2]; Collagen (1×10⁻⁵ g/ml)) [%] | inhibition at 10 µM ([3]; 0.01 mM) [%] | inhibition at 50 µM ([3]; 0.05 mM) [%] | inhibition at 100 µM ([3]; 0.1 mM) [%] | inhibition at 200 µM ([3]; 0.2 mM) [%] | inhibition at 500 µM ([3]; 0.5 mM) [%] | Erythrocyte Deformation: Erythrocyte counts ±S.E. [4] [× 10⁷] | GOT ±S.E. [5] [IU/ℓ] | Total Cholesterol ±S.E. [5] [mg/dL] | Triglyceride ±S.E. [5] [mg/dL] | Survival Time ±S.E. [6] [s] | Hemolysis Inhibition Ratio (%) against Control ([3]; 0.01 mM) [%] | Hemolysis Inhibition Ratio (%) against Control ([3]; 0.05 mM) [%] | Hemolysis Inhibition Ratio (%) against Control ([3]; 0.1 mM) [%] | Hemolysis Inhibition Ratio (%) against Control ([3]; 0.2 mM) [%] | Hemolysis Inhibition Ratio (%) against Control ([3]; 0.5 mM) [%] |
| --- | --- | --- | --- | --- | --- | --- | --- | --- | --- | --- | --- | --- | --- | --- | --- | --- | --- | --- |
| C[C@H](CC[C@H](O)[C@H](C)CO)[C@H]1CC[C@H]2[C@@H]3[C@H](O)C[C@@H]4C[C@H](O)CC[C@]4(C)[C@H]3C[C@H](O)[C@]12C [Example 10, (24S)-(25R) 3α,7α,12α,24,26-pentahydroxy-5β-cholestane] | 13.8 ± 2.85 | 42.2 ± 2.33 | 48.3 ± 1.65 | 24 | 21 | 31 | 44 | 58 | 4.41 ± 0.54 | 145 ± 7 | 465 ± 59 | 99 ± 29 | 125.1 ± 3.89 |  |  |  |  |  |
| C[C@H](CC[C@@H](O)[C@@H](C)CO)[C@H]1CC[C@H]2[C@@H]3[C@H](O)C[C@@H]4C[C@H](O)CC[C@]4(C)[C@H]3C[C@H](O)[C@]12C [Example 11, (24R)-(25S)-3α,7α,12α,24,26-pentahydroxy-5β-cholestane] | 14.4 ± 2.01 | 43.3 ± 2.81 | 40.8 ± 1.90 | 20 | 18 | 30 | 43 | 51 | 3.95 ± 0.64 | 151 ± 15 | 433 ± 71 | 110 ± 33 | 121.1 ± 2.60 |  |  |  |  |  |
| C[C@H](CO)[C@H](O)CC[C@@H](C)[C@H]1CC[C@H]2[C@@H]3[C@H](O)C[C@@H]4C[C@H](O)CC[C@]4(C)[C@H]3C[C@H](O)[C@]12C [Example 12, (24R)-(25R)-3α,7α,12α,24,26-pentahydroxy-5β-cholestane] | 12.2 ± 1.88 | 46.5 ± 5.82 | 41.3 ± 3.81 | 24 | 20 | 33 | 48 | 55 | 3.80 ± 0.78 | 141 ± 17 | 475 ± 75 | 115 ± 39 | 118.1 ± 3.33 |  |  |  |  |  |
| C[C@H](CC[C@@H](O)C(CO)CO)[C@H]1CC[C@H]2[C@@H]3[C@H](O)C[C@@H]4C[C@H](O)CC[C@]4(C)[C@H]3C[C@H](O)[C@]12C [Illustrative Example 1, (24R)-(+)-3α,7α,12α,24,26,27-hexahydroxy-5β-cholestane] | 15.1 ± 1.98 | 50.3 ± 1.32 | 43.8 ± 3.99 | 23 | 20 | 42 | 53 | 80 | 3.72 ± 0.55 | 128 ± 10 | 390 ± 61 | 90 ± 16 | 155.4 ± 13.2 |  |  |  |  |  |
| C[C@H](CC[C@@H](O)CCO)[C@H]1CC[C@H]2[C@@H]3[C@H](O)C[C@@H]4C[C@H](O)CC[C@]4(C)[C@H]3C[C@H](O)[C@]12C [Illustrative Example 2, 27-nor-(24R)-(+)-3α,7α,12α,24,26-pentahydroxy-5β-cholestane] | 13.4 ± 2.38 | 51.5 ± 1.55 | 44.4 ± 4.51 |  |  |  |  |  | 3.62 ± 0.46 | 141 ± 6 | 444 ± 61 | 101 ± 42 | 116.3 ± 4.86 | 31 | 23 | 38 | 60 | 71 |
| C[C@H](CC[C@H](O)CCO)[C@H]1CC[C@H]2[C@@H]3[C@H](O)C[C@@H]4C[C@H](O)CC[C@]4(C)[C@H]3C[C@H](O)[C@]12C [Illustrative Example 3, 27-nor-(24S)-(+)-3α,7α,12α,24,26-pentahydroxy-5β-cholestane] | 12.3 ± 3.55 | 50.3 ± 1.38 | 45.5 ± 2.66 |  |  |  |  |  | 3.81 ± 0.23 | 158 ± 12 | 428 ± 68 | 105 ± 40 | 109.2 ± 4.77 | 38 | 31 | 22 | 41 | 61 |
